The values that follow come from patent US20240226042A9, “A PROPYL PROPANE THI[…] FOR USE AS ANTITUMORAL” (DMC RESEARCH CENTER, SL, priority 2021, published 2024).

For series [1], the system named is Panc-1 (human pancreatic carcinoma line). The note with it: Panc-1 cells, 72 hours induction, SRB; means±SEM of six independent determinations. As to the method: (§1) Adherent cells (MCF-7, A-549, T-84, HT-29 and Panc-1), were detached from the surface of the culture flasks, using 3-4 ml of trypsin 1×, and left to act for 5-10 minutes in an incubator at 37° C. with 5% CO2. Once the cells were detached, the trypsinization was stopped, adding to the medium flask the same amount of complete culture as trypsin used to detach cells. After resuspending the mixture of trypsin and detached cells several times, the content of the culture flask was transferred to a sterile tube to centrifugation it for 5 minutes at 1500-1600 rpm.
(§2) Adherent cells were incubated for 24 hours to get cells attached to the surface of the flask. Then, the culture medium was replaced for a new medium, to which increasing concentrations of PTSO had been added, and the induction was conducted for 72 hours.

In series [2] the test system is HT-29 (human colorectal carcinoma line). The note with it: HT-29 cells, 72 hours induction, SRB; means±SEM of six independent determinations. How it is done:
as §1, §2

The subject of series [3] is MCF-7 (human breast adenocarcinoma line). How it is done:
as §1, §2

For series [4], the system named is normal human peripheral blood mononuclear cells (PBMCs). The note with it: normal PBMCs from healthy volunteers, 72 hours induction, MTT; means±SEM of six independent determinations. How it is done:
as §2

The subject of series [5] is Jurkat (human tumor T lymphocytes line). As to the method:
as §2

The subject of a further series is rats. The settings on record: OECD guideline 408, 90-days oral subchronic toxicity study; cited from earlier work.
For series [6], the system named is A-549 (human lung adenocarcinoma line). The note with it: A-549 cells, 72 hours induction, SRB; means±SEM of six independent determinations.
Source text: (§3) A-549 (Reference CCL-185 of the American Type Culture Collection): It is a tumor line of basal alveolar epithelium that comes from a pulmonary adenocarcinoma removed from a patient. These cells are squamous and can synthesize lecithin. T-84 (Reference CCL-248 of the American Type Culture Collection): It is a tumor line with epithelial morphology, isolated from a pulmonary metastasis of a colorectal carcinoma of a patient. These cells present receptors for a large group of hormones and neurotransmitters, and they produce carcinoembryonic antigen (CEA) and keratin, among other cellular products.
as §1
(§4) Adherent cells were incubated for 24 hours to get cells attached to the surface of the flask. […]

Series [7] deals with T-84 (human colorectal adenocarcinoma line). The note with it: T-84 cells, 72 hours induction, SRB; means±SEM of six independent determinations.
Source text: as §3, §1, §4

Usually IC50 stands for the concentration that gives 50% inhibition. A high value points to weaker potency in that assay.

The structures appear in SMILES notation.

Regarding `CCCSS(=O)(=O)CCC` [PTSO, propyl propane thiosulfonate], the IC50 in series [1] turned out to be 33.8 µM; in series [2], 50.8 µM; in series [3] (MCF-7 cells, 72 hours induction, SRB, means±SEM of six independent determinations), 6.9 µM; in series [4] it was 248 µM; in series [5] (Jurkat cells, 72 hours induction, MTT, means±SEM of six independent determinations), 15.7 µM; in series [6], 38.6 µM. Also, in series [7], the IC50 is 37.3 µM. For the same molecule, the “in vitro T.I (IC50 Normal Line/IC50 Tumor Line)” value in series [3] (IC50 PBMCs / IC50 MCF-7 tumor line) was determined as 36.0; in series [5] (IC50 PBMCs / IC50 Jurkat tumor line), 15.8. For the same molecule, the “no-observed-adverse-effect level (NOAEL)” value in the series with rats is given as 55 mg/kg/day.
